Test results as given in patent publication US20100197591A1, “4-AMINO-7,8-DIHYDROPYRIDO[4,3-d]PYRIMIDIN-5(6H)-ONE DERIVATIVES” (pfizer Inc, priority 2009, published 2010).

biological target: T1, Human full-length diacylglycerol:acylCoA acyltransferase 1 (DGAT-1) (Homo sapiens, UniProt O75907); assay: DGAT-1 Reduced Microsome Multidose Assay, G7329F Human IC50; type: biochemical; settings: crude membrane fraction of Sf9 cells expressing human DGAT-1; [14C]decanoylCoA; apparent IC50, average where tested more than once
T1 construct: Human full-length diacylglycerol:acylCoA acyltransferase 1 (DGAT-1) was expressed in Sf9 insect cells; made in house; host or cells: Sf9 insect cells (baculovirus); crude membrane/microsome fraction
T1 sequence (O75907 1-488): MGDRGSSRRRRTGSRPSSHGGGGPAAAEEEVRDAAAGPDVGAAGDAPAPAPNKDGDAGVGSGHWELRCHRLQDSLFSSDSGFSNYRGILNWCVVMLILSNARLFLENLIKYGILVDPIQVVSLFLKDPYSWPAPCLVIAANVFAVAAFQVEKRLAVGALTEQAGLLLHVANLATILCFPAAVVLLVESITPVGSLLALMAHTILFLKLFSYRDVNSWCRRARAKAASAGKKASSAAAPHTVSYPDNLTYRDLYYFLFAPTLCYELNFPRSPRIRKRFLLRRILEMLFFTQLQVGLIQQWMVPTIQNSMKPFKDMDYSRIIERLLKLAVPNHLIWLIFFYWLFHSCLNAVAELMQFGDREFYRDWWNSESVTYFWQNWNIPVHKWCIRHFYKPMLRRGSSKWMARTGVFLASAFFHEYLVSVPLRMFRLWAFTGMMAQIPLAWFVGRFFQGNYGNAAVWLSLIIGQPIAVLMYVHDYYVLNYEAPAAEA
Experimental: (§1) Human full-length diacylglycerol:acylCoA acyltransferase 1 (DGAT-1) was expressed in Sf9 insect cells which are then lysed and a crude membrane fraction (105,000×g pellet) was prepared. The DGAT-1 gene is a human DGAT-1 gene described in J Biol Chem 273:26765 (1998) and U.S. Pat. No. 6,100,077.
(§2) In vitro inhibition of DGAT-1 was measured using a modification, further described below, of the assay methodology described in U.S. Pat. No. 6,994,956 B2.
(§3) The cells were cultured as follows. Sf9 cells (20 L) were infected with 4 mL of DGAT-1 Baculovirus Infected Insect Cells (BIIC) for 72 hours in a Wave Bioreactor System 20/50P (Wave Biotec/GE Healthcare).
(§4) Crude DGAT-1 microsomes were prepared as follows. Cell pellets were washed once with ice-cold Dulbecco's phosphate-buffered saline. Cells were collected in tabletop centrifuge (Beckman GS-6KR), 15 minutes, 2000×g, 4° C. Twenty (20) mL of ice-cold Microsome Buffer (MB) was added per 5 g of cell pellet. The suspension was passed through a microfluidizer 3 times (18K psi). The lysate was transferred to centrifuge tubes and centrifuged for 20 minutes at 5000×g (Beckman-Coulter, Inc. Allegra® 64R High-Speed Refrigerated Benchtop Centrifuge, F0650 rotor) at 4° C. The supernatant was transferred to ultracentrifuge tubes and centrifuged at 125,000×g for 1 hour in a Beckman Ti-45 rotor, 4° C. The supernatant fluid was discarded. The pellet was resuspended in 70 mL of MB by sonication. The microsome concentration was determined using Bio-Rad Protein DC Protein Assay. The microsomes were filter sterilized with a 0.22 μm filter. The samples were portioned, flash frozen and stored at −80° C.
(§5) The Microsome Buffer, used for microsome preparation, was prepared by conventional means and contained 125 mM sucrose, 3 mM imidazole, 0.2 μg/mL aprotinin, 0.2 μg/mL leupeptin and 5 mM dithiothreitol (Cleland's reagent), DGAT-1 activity was measured in 384-well format in a total assay volume of 25 μl that contained, Hepes buffer (50 mM, pH 7.5), MgCl2 (10 mM), bovine serum albumin (0.6 mg/ml), [^14C]decanoylCoA (20 μM, 58 Ci/mol) and membranes (25 μg/ml) into which 1,2 dioleoyl-sn-glycerol (75 μM) in acetone has already been incorporated. Inhibitors in DMSO were pre-incubated with membranes before initiating the DGAT-1 reaction by the addition of decanoylCoA. […] The DMSO concentration was 2.5%. The inhibitors were present at a range of eight concentrations to generate an apparent IC50 for each compound. The eight inhibitor concentration employed ranged from 10 μM to 3 nM (from high to low concentration). Specifically, the eight concentrations used were 10 μM, 3 μM, 1 μM, 300 nM, 100 nM, 30 nM, 10 nM and 3 nM.
(§6) Reaction mixtures were neutralized by the addition of 15 μl of tris(hydroxy-methyl)aminomethane (1M, pH 8.0) and then mixed by trituration with 37.5 μl of Microscint™-E (Perkin Elmer). Plates contents were allowed to partition for 15 to 30 min before ^14C was measured in a scintillation spectrometer (Wallac Microbeta Trilux 1450-030 liquid scintillation counter 12 detector in the top-count DPM mode). Percent inhibition of test compounds was computed as […].
(§7) Four separate assays were performed using 4 different methods of analysis. The method of analysis of Assay 1 was the same as Assay 4 (described above) except microsomes were utilized at 25 μg/mL instead of 5 μg/mL. The method of analysis of Assay 2 was the same as Assay 4 (described above) except eleven (11) concentrations of inhibitor were employed instead of eight (8). The method of analysis of Assay 3 was the same as Assay 2 except the compounds were serially diluted in a different laboratory.
(§8) Where this DGAT-1 inhibition assay was performed on a compound more than once, an average is provided for that compound.

**Q.** Which IC50 does the source give for `COc1nc(N)c2c(n1)CCN(c1ccc(OCC3CC3)cc1)C2=O` [Example 9H, 4-amino-6-[4-(cyclopropylmethoxy)phenyl]-2-methoxy-7,8-dihydropyrido[4,3-d]pyrimidin-5(6H)-one] here?
**A.** 115 nM

**Q.** For `COc1nc(N)c2c(n1)CCN(c1ccc(OCC(C)C)cc1)C2=O` [Example 9I, 4-amino-6-(4-isobutoxyphenyl)-2-methoxy-7,8-dihydropyrido[4,3-d]pyrimidin-5(6H)-one], which IC50 is on record?
**A.** 84.1 nM

**Q.** For `COc1nc(N)c2c(n1)CCN(c1ccc3nc[nH]c3c1)C2=O` [Example 9J, 4-amino-6-(1H-benzimidazol-6-yl)-2-methoxy-7,8-dihydropyrido[4,3-d]pyrimidin-5(6H)-one], which IC50 is on record?
**A.** 1400 nM

**Q.** Which IC50 does the source give for `COc1nc(N)c2c(n1)CCN(c1ccc(C3(C)CCCO3)cc1)C2=O` (centres unmarked) [Example 9K, 4-amino-2-methoxy-6-[4-(2-methyltetrahydrofuran-2-yl)phenyl]-7,8-dihydropyrido[4,3-d]pyrimidin-5(6H)-one] here?
**A.** 63.2 nM

**Q.** Which IC50 does the source give for `COc1nc(N)c2c(n1)CCN(c1ccc(CCC(F)(F)F)cc1)C2=O` [Example 9L, 4-amino-2-methoxy-6-[4-(3,3,3-trifluoropropyl)phenyl]-7,8-dihydropyrido[4,3-d]pyrimidin-5(6H)-one] here?
**A.** 77.4 nM

**Q.** For `COc1nc(N)c2c(n1)CCN(c1ccc(SC(C)(C)C)cc1)C2=O` [Example 9N, 4-amino-6-[4-(tert-butylthio)phenyl]-2-methoxy-7,8-dihydropyrido[4,3-d]pyrimidin-5(6H)-one], which IC50 is on record?
**A.** 23.9 nM

**Q.** How did the IC50 turn out when `COc1nc(N)c2c(n1)CCN(c1ccc([S+]([O-])C(C)(C)C)cc1)C2=O` (centres unmarked) [Example 9O, 4-amino-6-[4-(tert-butylsulfinyl)phenyl]-2-methoxy-7,8-dihydropyrido[4,3-d]pyrimidin-5(6H)-one] was run?
**A.** 648 nM

**Q.** With `COc1nc(N)c2c(n1)CCN(c1ccc(S(=O)(=O)C(C)(C)C)cc1)C2=O` [Example 9P, 4-amino-6-[4-(tert-butylsulfonyl)phenyl]-2-methoxy-7,8-dihydropyrido[4,3-d]pyrimidin-5(6H)-one] as the compound, how does the IC50 read?
**A.** 784 nM

**Q.** How did the IC50 turn out when `COc1nc(N)c2c(n1)CCN(c1ccc(C(O)C(C)(C)C)cc1)C2=O` (centres unmarked) [Example 10A, 4-amino-6-[4-(1-hydroxy-2,2-dimethylpropyl)phenyl]-2-methoxy-7,8-dihydropyrido[4,3-d]pyrimidin-5(6H)-one] was run?
**A.** 58.8 nM

**Q.** How did the IC50 turn out when `COc1nc(N)c2c(n1)CCN(c1ccc(C(OC)C(C)(C)C)cc1)C2=O` (centres unmarked) [Example 10D, 4-amino-2-methoxy-6-[4-(1-methoxy-2,2-dimethylpropyl)phenyl]-7,8-dihydropyrido[4,3-d]pyrimidin-5(6H)-one] was run?
**A.** 27.9 nM

**Q.** Which IC50 does the source give for `CC(C)(C)c1ccc(N2CCc3ncnc(N)c3C2=O)cc1` [Example 11A, 4-amino-6-(4-tert-butylphenyl)-7,8-dihydropyrido[4,3-d]pyrimidin-5(6H)-one] here?
**A.** 117 nM

biological target: T1, Human full-length diacylglycerol:acylCoA acyltransferase 1 (DGAT-1); assay: DGAT-1 Reduced Microsome Multidose Assay, G7829E Human IC50; type: biochemical; settings: crude membrane fraction of Sf9 cells expressing human DGAT-1; [14C]decanoylCoA; terminated with 5 μl of 1.4% phosphoric acid instead of HCl; average where tested more than once
Experimental: as §1, §2, §3, §4, §5, §6, §7, §8

**Q.** Which IC50 does the source give for `COc1nc(N)c2c(n1)CCN(c1ccc(C(=O)C(C)(C)C)cc1)C2=O` [Example 1F, 4-amino-6-[4-(2,2-dimethylpropanoyl)phenyl]-2-methoxy-7,8-dihydropyrido[4,3-d]pyrimidin-5(6H)-one] here?
**A.** 192 nM

**Q.** Which IC50 does the source give for `COc1nc(N)c2c(n1)CCN(c1cccc(C(C)(C)CO)c1)C2=O` [Example 1K, 4-amino-6-[3-(2-hydroxy-1,1-dimethylethyl)phenyl]-2-methoxy-7,8-dihydropyrido[4,3-d]pyrimidin-5(6H)-one] here?
**A.** 831 nM

**Q.** `COc1nc(N)c2c(n1)CCN(c1ccc(C(C)(C)c3ncco3)cc1)C2=O` [Example 1L, 4-amino-2-methoxy-6-{4-[1-methyl-1-(1,3-oxazol-2-yl)ethyl]phenyl}-7,8-dihydropyrido[4,3-d]pyrimidin-5(6H)-one] was tested. Which IC50 did it give?
**A.** 34.8 nM

**Q.** `COc1nc(N)c2c(n1)CCN(c1ccc(C(C)(C)c3cnco3)cc1)C2=O` [Example 1M, 4-amino-2-methoxy-6-{4-[1-methyl-1-(1,3-oxazol-5-yl)ethyl]phenyl}-7,8-dihydropyrido[4,3-d]pyrimidin-5(6H)-one] was tested. Which IC50 did it give?
**A.** 11.3 nM

**Q.** For `COc1nc(N)c2c(n1)CCN(c1ccc(C(C)(C)c3cc[nH]n3)cc1)C2=O` [Example 1N, 4-amino-2-methoxy-6-{4-[1-methyl-1-(1H-pyrazol-3-yl)ethyl]phenyl}-7,8-dihydropyrido[4,3-d]pyrimidin-5(6H)-one], which IC50 is on record?
**A.** 31.9 nM

**Q.** For `COc1nc(N)c2c(n1)CCN(c1ccc(CC(C)(C)O)cc1)C2=O` [Example 1S, 4-amino-6-[4-(2-hydroxy-2-methylpropyl)phenyl]-2-methoxy-7,8-dihydropyrido[4,3-d]pyrimidin-5(6H)-one], which IC50 is on record?
**A.** 44.3 nM

**Q.** With `COc1nc(N)c2c(n1)CCN(c1ccc3c(c1)COC3(C)C)C2=O` [Example 1U, 4-amino-6-(1,1-dimethyl-1,3-dihydro-2-benzofuran-5-yl)-2-methoxy-7,8-dihydropyrido[4,3-d]pyrimidin-5(6H)-one] as the compound, how does the IC50 read?
**A.** 229 nM

**Q.** For `COc1nc(N)c2c(n1)CCN(c1ccc(C3(O)CCCCC3)cc1)C2=O` [Example 1V, 4-amino-6-[4-(1-hydroxycyclohexyl)phenyl]-2-methoxy-7,8-dihydropyrido[4,3-d]pyrimidin-5(6H)-one], which IC50 is on record?
**A.** 113 nM

**Q.** For `CCC(O)(CC)c1ccc(N2CCc3nc(OC)nc(N)c3C2=O)cc1` [Example 1W, 4-amino-6-[4-(1-ethyl-1-hydroxypropyl)phenyl]-2-methoxy-7,8-dihydropyrido[4,3-d]pyrimidin-5(6H)-one], which IC50 is on record?
**A.** 34 nM

**Q.** For `COc1nc(N)c2c(n1)CCN(c1ccc(C(C)(C)c3ccon3)cc1)C2=O` [Example 3B, 4-amino-6-[4-(1-isoxazol-3-yl-1-methylethyl)phenyl]-2-methoxy-7,8-dihydropyrido[4,3-d]pyrimidin-5(6H)-one], which IC50 is on record?
**A.** 55 nM

**Q.** How did the IC50 turn out when `COc1nc(N)c2c(n1)CCN(c1ccc(C(C)(C)c3ccno3)cc1)C2=O` [Example 3C, 4-amino-6-[4-(1-isoxazol-5-yl-1-methylethyl)phenyl]-2-methoxy-7,8-dihydropyrido[4,3-d]pyrimidin-5(6H)-one] was run?
**A.** 4.5 nM

**Q.** Which IC50 does the source give for `COc1nc(N)c2c(n1)CCN(c1ccc(C(C)(C)c3nnnn3C)cc1)C2=O` [Example 3Q, 4-amino-2-methoxy-6-{4-[1-methyl-1-(1-methyl-1H-tetrazol-5-yl)ethyl]phenyl}-7,8-dihydropyrido[4,3-d]pyrimidin-5(6H)-one] here?
**A.** 95.3 nM
